Test results from US6365585B1, “Phosphodiesterase IV-inhibiting diazepinoindoles” (Warner-Lambert Company, priority 1998, dated 2002).

Columns and labels:
[1] = Metabolism in vitro of MPTDI, rat hepatic microsomes (HPLC-MS profile); assay type: in vitro ADME; conditions: incubation of MPTDI with rat hepatic microsomes
Procedure: (§1) The profile and the identification of the metabolites of MPTDI were obtained after incubation of the product with human hepatic microsomes. The results were compared with those obtained on rat hepatic microsomes. The metabolic profiles obtained by HPLC coupled to a mass spectrometer in these two species are represented in FIG. 1. In some cases, the mass spectra obtained were compared with those of reference substances synthesized by the chemical route. It is deduced therefrom that the profiles obtained on human and rat microsomes are similar: Table 1 collates the measured proportions of the metabolites for these two species.

[2] = Metabolism in vitro of MPTDI, human hepatic microsomes (HPLC-MS profile); assay type: in vitro ADME; conditions: incubation of MPTDI with human hepatic microsomes
Procedure: as §1

| SMILES | Proportions (%) of the metabolites obtained on rat hepatic microsomes [1] | Proportions (%) of the metabolites obtained on human hepatic microsomes [2] | melting point |
| --- | --- | --- | --- |
| Cc1cc2c3c(c1)C(c1ccccc1)=N[C@@H](NC(=O)c1ccncc1)C(=O)N3CC2 [MPTDI, (3R)-N-(9-methyl-4-oxo-1-phenyl-3,4,6,7-tetrahydro[1,4]diazepino[6,7,1-hi]indol-3-yl)isonicotinamide, reference compound] | 38.2% | 79% | – |
| O=C(NC1N=C(c2ccccc2)c2cc(CO)cc3c2N(CC3)C1=O)c1ccncc1 (centres unmarked) [OH on 9-CH3, N-(9-hydroxymethyl-4-oxo-1-phenyl-3,4,6,7-tetrahydro[1,4]diazepino[6,7,1-hi]indol-3-yl)isonicotinamide] | 24.3% | 4.2% | 260 °C |
